Results taken from US20230117034A1, “PYRAZOLOTRIAZINES” (Bayer Aktiengesellschaft, priority 2019, published 2023).
Like-named read-outs stand apart in the source and are kept apart here.

What was measured:
[1] = system: BRCA1 mRNA expression in MDA-MB-231 cells; assay: qRT-PCR assay: BRCA1 mRNA expression in MDA-MB-231; type: cell-based, human; settings: Homo sapiens, median, read-out: RTqPCR-MDA-MB-231, IC50, BRCA1 (median)
Method in brief: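 BRCA1 transcript by RT-qPCR relative to GAPDH, from 600 ng RNA converted to cDNA. MDA-MB-231 cells plated at 200,000/well received test compound continuously for 24 h, starting 24 h post-seeding.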

[2] = system: CAL-120, human breast adenocarcinoma cells; assay: Proliferation assay CAL-120 (crystal violet, 4 days); type: cell-based; settings: Homo sapiens, CAL-120 cells, median, read-out: Prolif-CAL-120, IC50-[mol/l] (median)
Method in brief: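 IC50 from a 4-parameter fit of crystal violet absorbance (595 nm), scaled between the day-of-dosing plate (0%) and vehicle cells (100%). MDA-MB-231 or CAL-120 cells were treated for 4 days with 0.01–10 micromol/L compound in 0.1% DMSO after 24 h attachment.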

[3] = biological target: T1, CDK12 (nuclear staining in CAL-120 cells) (Homo sapiens, UniProt Q9NYV4); assay: CDK12 nuclear protein level: immunofluorescence/high content analysis (CAL-120); type: cell-based; settings: for DC50: CAL-120 cells, 24 h, immunofluorescence, 50% reduction of nuclear CDK12 staining intensity, median, read-out: CDK12 degradation IF, DC50- [mol/l] (median); for (IC50 CDK12 high ATP) to (Degradation DC50 CDK12) ratio: ratio of IC50 CDK12 high ATP kinase assay to DC50 CDK12 degradation (IF, CAL-120)
T1 construct: endogenous in cells; host or cells: CAL-120 human breast cancer cells (DSMZ ACC 459)
T1 sequence (Q9NYV4 whole entry): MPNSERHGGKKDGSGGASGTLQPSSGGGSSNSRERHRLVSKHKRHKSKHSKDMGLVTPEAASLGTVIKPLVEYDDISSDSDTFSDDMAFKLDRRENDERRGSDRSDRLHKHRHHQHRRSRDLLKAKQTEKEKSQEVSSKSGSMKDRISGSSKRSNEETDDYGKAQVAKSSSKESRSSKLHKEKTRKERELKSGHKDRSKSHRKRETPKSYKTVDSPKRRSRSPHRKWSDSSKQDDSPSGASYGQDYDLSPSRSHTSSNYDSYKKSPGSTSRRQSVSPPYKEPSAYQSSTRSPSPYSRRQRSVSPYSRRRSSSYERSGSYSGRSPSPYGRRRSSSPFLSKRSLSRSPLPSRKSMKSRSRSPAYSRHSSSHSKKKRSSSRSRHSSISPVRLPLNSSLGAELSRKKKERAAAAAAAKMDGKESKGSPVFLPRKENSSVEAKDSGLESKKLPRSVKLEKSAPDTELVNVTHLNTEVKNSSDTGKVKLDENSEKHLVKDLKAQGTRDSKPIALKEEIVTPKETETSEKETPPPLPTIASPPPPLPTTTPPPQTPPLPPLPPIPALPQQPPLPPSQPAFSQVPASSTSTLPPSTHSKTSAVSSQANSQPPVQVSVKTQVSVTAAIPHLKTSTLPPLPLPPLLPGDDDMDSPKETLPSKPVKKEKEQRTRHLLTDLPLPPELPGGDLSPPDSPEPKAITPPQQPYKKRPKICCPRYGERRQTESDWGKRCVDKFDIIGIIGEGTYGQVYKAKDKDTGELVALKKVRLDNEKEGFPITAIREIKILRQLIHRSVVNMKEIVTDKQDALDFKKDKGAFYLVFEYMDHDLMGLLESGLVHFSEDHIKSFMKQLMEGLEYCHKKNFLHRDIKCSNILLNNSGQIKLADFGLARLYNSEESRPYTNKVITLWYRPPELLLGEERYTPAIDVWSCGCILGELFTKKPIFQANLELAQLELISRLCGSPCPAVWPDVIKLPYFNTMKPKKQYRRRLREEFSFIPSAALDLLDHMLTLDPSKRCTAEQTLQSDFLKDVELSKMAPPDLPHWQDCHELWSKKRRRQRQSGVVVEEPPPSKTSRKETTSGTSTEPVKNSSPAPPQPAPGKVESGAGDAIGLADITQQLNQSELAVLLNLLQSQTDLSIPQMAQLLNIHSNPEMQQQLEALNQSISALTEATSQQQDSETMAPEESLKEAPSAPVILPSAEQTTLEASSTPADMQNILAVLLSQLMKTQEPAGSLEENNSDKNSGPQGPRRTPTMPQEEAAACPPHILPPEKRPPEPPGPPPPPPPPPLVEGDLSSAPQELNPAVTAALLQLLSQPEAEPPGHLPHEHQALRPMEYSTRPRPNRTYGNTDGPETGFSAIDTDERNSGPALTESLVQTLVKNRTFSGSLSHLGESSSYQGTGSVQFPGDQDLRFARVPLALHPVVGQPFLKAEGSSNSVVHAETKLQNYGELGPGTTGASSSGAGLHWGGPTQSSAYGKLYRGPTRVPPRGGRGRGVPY
T1 sequence (O75909 whole entry partner): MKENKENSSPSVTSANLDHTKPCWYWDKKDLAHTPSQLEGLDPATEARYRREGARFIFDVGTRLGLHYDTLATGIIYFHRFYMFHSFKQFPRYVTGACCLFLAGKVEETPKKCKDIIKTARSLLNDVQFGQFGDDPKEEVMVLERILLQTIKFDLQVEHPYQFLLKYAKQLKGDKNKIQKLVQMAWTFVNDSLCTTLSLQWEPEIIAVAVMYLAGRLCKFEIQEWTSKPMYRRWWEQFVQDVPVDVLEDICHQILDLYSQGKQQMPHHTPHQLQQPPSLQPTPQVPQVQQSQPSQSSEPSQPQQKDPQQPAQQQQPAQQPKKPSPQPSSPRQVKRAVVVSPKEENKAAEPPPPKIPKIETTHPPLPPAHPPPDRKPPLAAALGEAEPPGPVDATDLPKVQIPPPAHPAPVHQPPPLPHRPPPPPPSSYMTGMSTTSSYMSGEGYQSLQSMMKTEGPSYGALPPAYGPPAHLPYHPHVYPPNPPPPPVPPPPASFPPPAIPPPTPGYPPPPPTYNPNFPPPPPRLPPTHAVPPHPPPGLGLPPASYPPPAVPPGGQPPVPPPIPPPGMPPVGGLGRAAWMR
Method in brief: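 DC50 is the degrader concentration that halves nuclear CDK12 immunofluorescence relative to controls, measured by high-content imaging. CAL-120 cells were exposed to compound for 24 h at 37 °C before PFA fixation, and signal was normalized to DMSO and control wells.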

[4] = MDA-MB-231, Inhibition of BRCA1 mRNA expression in MDA-MB-231 cells

| SMILES | IC50 [1, 4] [nM] | IC50 ([2]; CAL-120, 96 h) [nM] | DC50 [3] [nM] | (IC50 CDK12 high ATP) to (Degradation DC50 CDK12) ratio [3] | IC50 ([1]; Inhibition of BRCA1 mRNA expression in MDA-MB-231 cells) [nM] | IC50 ([2]; 96 h) [nM] |
| --- | --- | --- | --- | --- | --- | --- |
| Fc1cc2nc(CNc3nc(N4CCOCC4)nc4c(Br)cnn34)[nH]c2cc1Cl [Example 336, 8-bromo-N-[(6-chloro-5-fluoro-1H-benzimidazol-2-yl)methyl]-2-(morpholin-4-yl)pyrazolo[1,5-a][1,3,5]triazin-4-amine] | 8 | 3.21 | 3.08 | 256 |  |  |
| FC(F)(F)c1ccc2[nH]c(CNc3nc(N4CCOCC4)nc4c(Br)cnn34)nc2c1 [Example 339, 8-bromo-2-(morpholin-4-yl)-N-{[5-(trifluoromethyl)-1H-benzimidazol-2-yl]methyl}pyrazolo[1,5-a][1,3,5]triazin-4-amine] | 7.85 | 4.79 | 7.59 | 204 |  |  |
| Cc1cc2nc(CNc3nc(N4CCOCC4)nc4c(Br)cnn34)[nH]c2cc1C [Example 340, 8-bromo-N-[(5,6-dimethyl-1H-benzimidazol-2-yl)methyl]-2-(morpholin-4-yl)pyrazolo[1,5-a][1,3,5]triazin-4-amine] | 8.16 | 3.36 | 7.8 | 79 |  |  |
| CN1CCN(c2nc(NCc3nc4cc(C(F)(F)F)ccc4[nH]3)n3ncc(Br)c3n2)CC1 [Example 344, 8-bromo-2-(4-methylpiperazin-1-yl)-N-{[5-(trifluoromethyl)-1H-benzimidazol-2-yl]methyl}pyrazolo[1,5-a][1,3,5]triazin-4-amine] | 2.34 | 2.7 | 6.69 | 1251 |  |  |
| Fc1cc2nc(CNc3nc(N4CC5CCC(C4)N5)nc4c(Br)cnn34)[nH]c2cc1Cl [Example 348, 8-bromo-N-[(6-chloro-5-fluoro-1H-benzimidazol-2-yl)methyl]-2-(3,8-diazabicyclo[3.2.1]octan-3-yl)pyrazolo[1,5-a][1,3,5]triazin-4-amine] |  |  | 5.3 | 546 | 1.97 | 1.14 |
| Brc1cnn2c(NCc3nc4ccccc4[nH]3)nc(N3CCN4CCC3CC4)nc12 [Example 349, N-[(1H-benzimidazol-2-yl)methyl]-8-bromo-2-(1,4-diazabicyclo[3.2.2]nonan-4-yl)pyrazolo[1,5-a][1,3,5]triazin-4-amine] | 15.6 | 3.76 | 9.89 | 877 |  |  |
| Brc1cnn2c(NCc3nc4ccccc4[nH]3)nc(N3CC4CCC3CO4)nc12 (stereo not shown) [Example 352, N-[(1H-benzimidazol-2-yl)methyl]-8-bromo-2-(2-oxa-5-azabicyclo[2.2.2]octan-5-yl)pyrazolo[1,5-a][1,3,5]triazin-4-amine] | 4.93 | 8.05 | 5.68 | 925 |  |  |
| Cc1cc2nc(CNc3nc(N4CC5CCC(C4)N5)nc4c(Br)cnn34)[nH]c2cc1C [Example 353, 8-bromo-2-(3,8-diazabicyclo[3.2.1]octan-3-yl)-N-[(5,6-dimethyl-1H-benzimidazol-2-yl)methyl]pyrazolo[1,5-a][1,3,5]triazin-4-amine] | 2.39 | 1.41 | 12.4 | 203 |  |  |
| FC(F)(F)c1ccc2[nH]c(CNc3nc(N4CC5CCC(C4)N5)nc4c(Br)cnn34)nc2c1 [Example 354, 8-bromo-2-(3,8-diazabicyclo[3.2.1]octan-3-yl)-N-{[5-(trifluoromethyl)-1H-benzimidazol-2-yl]methyl}pyrazolo[1,5-a][1,3,5]triazin-4-amine] | < 100 | 2.8 | 71.3 | 52 |  |  |
| Fc1cc2nc(CNc3nc(N4CC5CCC(C4)N5)nc4c(Br)cnn34)[nH]c2cc1F [Example 355, 8-bromo-2-(3,8-diazabicyclo[3.2.1]octan-3-yl)-N-[(5,6-difluoro-1H-benzimidazol-2-yl)methyl]pyrazolo[1,5-a][1,3,5]triazin-4-amine] | 1.41 | 2.2 | 23.5 | 178 |  |  |
| CN1C2CCC1CN(c1nc(NCc3nc4c(F)c(F)ccc4[nH]3)n3ncc(C(F)(F)F)c3n1)C2 [Example 356, N-[(4,5-difluoro-1H-benzimidazol-2-yl)methyl]-2-(8-methyl-3,8-diazabicyclo[3.2.1]octan-3-yl)-8-(trifluoromethyl)pyrazolo[1,5-a][1,3,5]triazin-4-amine] | 5.05 | 2.1 | 6.68 | 734 |  |  |

Continued, in another order:

| IC50 [1, 4] [nM] | IC50 ([2]; CAL-120, 96 h) [nM] | DC50 [3] [nM] | (IC50 CDK12 high ATP) to (Degradation DC50 CDK12) ratio [3] | SMILES | IC50 ([1]; Inhibition of BRCA1 mRNA expression in MDA-MB-231 cells) [nM] | IC50 ([2]; 96 h) [nM] |
| --- | --- | --- | --- | --- | --- | --- |
| < 10 | 2.04 | 1.85 | 4722 | CN1CCN(c2nc(NCc3nc4cc(F)c(Cl)cc4[nH]3)n3ncc(Br)c3n2)CC1 [Example 337, 8-bromo-N-[(6-chloro-5-fluoro-1H-benzimidazol-2-yl)methyl]-2-(4-methylpiperazin-1-yl)pyrazolo[1,5-a][1,3,5]triazin-4-amine] |  |  |
| 1.3 | 1.93 | 0.894 | 1320 | CN(CC(C)(C)O)c1nc(NCc2nc3cc(F)c(Cl)cc3[nH]2)n2ncc(Br)c2n1 [Example 338, 1-[(8-bromo-4-{[(6-chloro-5-fluoro-1H-benzimidazol-2-yl)methyl]amino}pyrazolo[1,5-a][1,3,5]triazin-2-yl)(methyl)amino]-2-methylpropan-2-ol] |  |  |
| 5.13 | < 0.1 | 3.55 | 624 | Fc1cc2nc(CNc3nc(N4CCOCC4)nc4c(Br)cnn34)[nH]c2cc1F [Example 341, 8-bromo-N-[(5,6-difluoro-1H-benzimidazol-2-yl)methyl]-2-(morpholin-4-yl)pyrazolo[1,5-a][1,3,5]triazin-4-amine] |  |  |
| 1.27 | 1.52 | 2.12 | 3129 | Cc1cc2nc(CNc3nc(N4CCN(C)CC4)nc4c(Br)cnn34)[nH]c2cc1C [Example 342, 8-bromo-N-[(5,6-dimethyl-1H-benzimidazol-2-yl)methyl]-2-(4-methylpiperazin-1-yl)pyrazolo[1,5-a][1,3,5]triazin-4-amine] |  |  |
| 1.91 | 1.82 | 3.56 | 53 | Cc1cc2nc(CNc3nc(N(C)CC(C)(C)O)nc4c(Br)cnn34)[nH]c2cc1C [Example 343, 1-[(8-bromo-4-{[(5,6-dimethyl-1H-benzimidazol-2-yl)methyl]amino}pyrazolo[1,5-a][1,3,5]triazin-2-yl)(methyl)amino]-2-methylpropan-2-ol] |  |  |
| 2.83 | 3.05 | 3.98 | 166 | CN(CC(C)(C)O)c1nc(NCc2nc3cc(C(F)(F)F)ccc3[nH]2)n2ncc(Br)c2n1 [Example 345, 1-{[8-bromo-4-({[5-(trifluoromethyl)-1H-benzimidazol-2-yl]methyl}amino)pyrazolo[1,5-a][1,3,5]triazin-2-yl](methyl)amino}-2-methylpropan-2-ol] |  |  |
| 3.02 | 2.66 | 2.35 | 5220 | CN1CCN(c2nc(NCc3nc4cc(F)c(F)cc4[nH]3)n3ncc(Br)c3n2)CC1 [Example 346, 8-bromo-N-[(5,6-difluoro-1H-benzimidazol-2-yl)methyl]-2-(4-methylpiperazin-1-yl)pyrazolo[1,5-a][1,3,5]triazin-4-amine] |  |  |
| 2.04 | 2.47 | 2.01 | 1086 | CN(CC(C)(C)O)c1nc(NCc2nc3cc(F)c(F)cc3[nH]2)n2ncc(Br)c2n1 [Example 347] |  |  |
| 13.7 | 4.35 | 6.55 | 1190 | Brc1cnn2c(NCc3nc4ccccc4[nH]3)nc(N3CCN4CCC3C4)nc12 (stereo not shown) [Example 350, N-[(1H-benzimidazol-2-yl)methyl]-8-bromo-2-(1,4-diazabicyclo[3.2.1]octan-4-yl)pyrazolo[1,5-a][1,3,5]triazin-4-amine] |  |  |
| 61.6 | 38.4 | 24 | 390 | Brc1cnn2c(NCc3nc4ccccc4[nH]3)nc(N3CC4CCC(C3)O4)nc12 [Example 351, N-[(1H-benzimidazol-2-yl)methyl]-8-bromo-2-(8-oxa-3-azabicyclo[3.2.1]octan-3-yl)pyrazolo[1,5-a][1,3,5]triazin-4-amine] |  |  |
| 6.05 | 4.33 | 3.9 | 295 | Fc1ccc2[nH]c(CNc3nc(N4CCOCC4)nc4c(Cl)cnn34)nc2c1F [Example 357] |  |  |
